Experimental data taken from ChEMBL document CHEMBL1201862, “PubChem BioAssay data set” (2004).
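Tested at 5 concentrations; 48 h exposure; 96-well plates; endpoints linearly interpolated, else capped at highest concentration. At the GI50, growth is halved.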 Active and inactive are the calls of the source. Cut-off read from the data, not from the text of the source: active = GI50 up to about 1.1 µM and inactive = higher.

Key:
Assay in all cases: inhibition of tumour cell growth, NCI panel, 48 h
UO-31 = system: UO-31
HCC 2998 = system: HCC 2998
A498 = system: A498
HOP-62 = system: HOP-62
K562 = system: K562
MDA-N = system: MDA-N
NCI/ADR-RES = system: NCI/ADR-RES
MCF7 = system: MCF7
SF-268 = system: SF-268
HL-60 = system: HL-60
RPMI-8226 = system: RPMI-8226
SNB-75 = system: SNB-75
NCI-H226 = system: NCI-H226
SF-539 = system: SF-539
TK-10 = system: TK-10
786-0 = system: 786-0
EKVX = system: EKVX
OVCAR-4 = system: OVCAR-4
PC-3 = system: PC-3
CCRF-CEM = system: CCRF-CEM

Measured: GI50

N#CC[N+]1(Cc2ccccn2)CCCC1.O=S(=O)([O-])c1ccccc1
inactive: UO-31 > 100 µM | HCC 2998 > 100 µM | A498 > 100 µM | HOP-62 > 100 µM | K562 > 100 µM | MDA-N > 100 µM | NCI/ADR-RES > 100 µM | MCF7 > 100 µM | SF-268 > 100 µM | HL-60 70.6 µM | RPMI-8226 > 100 µM | SNB-75 58.9 µM | NCI-H226 > 100 µM | SF-539 > 100 µM | TK-10 > 100 µM | 786-0 > 100 µM | EKVX > 100 µM | OVCAR-4 > 100 µM | PC-3 > 100 µM

CC(=O)c1c(SCCN2CCOCC2)n(-c2ccccc2)c(=S)n(-c2ccccc2)c1=O
inactive: UO-31 14.1 µM | HCC 2998 14.3 µM | A498 11.5 µM | HOP-62 26.2 µM | K562 14.1 µM | MDA-N 18.8 µM | NCI/ADR-RES > 57 µM | CCRF-CEM 10.8 µM | MCF7 2.21 µM | SF-268 20.2 µM | HL-60 28.5 µM | RPMI-8226 8.38 µM | SNB-75 22.3 µM | NCI-H226 > 53.1 µM | SF-539 21.6 µM | TK-10 17.2 µM | 786-0 11.5 µM | EKVX 48.2 µM | OVCAR-4 > 46.2 µM | PC-3 17.3 µM

CC1(CF)SCc2nc3ccccc3n21 (stereo unspecified)
inactive: UO-31 81.1 µM | HCC 2998 > 100 µM | A498 > 100 µM | HOP-62 > 100 µM | MDA-N > 100 µM | NCI/ADR-RES > 100 µM | MCF7 > 100 µM | SF-268 > 100 µM | HL-60 > 100 µM | RPMI-8226 > 100 µM | SNB-75 > 100 µM | NCI-H226 > 100 µM | SF-539 > 100 µM | TK-10 > 100 µM | 786-0 > 100 µM | EKVX > 100 µM | PC-3 > 100 µM

CCCCCCCCCCCCNC(C)=O
inactive: UO-31 20 µM | HCC 2998 17.5 µM | A498 20 µM | HOP-62 14.3 µM | MDA-N 16.7 µM | NCI/ADR-RES 17.3 µM | CCRF-CEM 14.4 µM | MCF7 17.1 µM | SF-268 14.3 µM | RPMI-8226 13.4 µM | SNB-75 23.6 µM | NCI-H226 18.7 µM | SF-539 16.3 µM | TK-10 13.7 µM | 786-0 16.8 µM | EKVX 11.4 µM | PC-3 14.5 µM

CSc1nc(SC)c2c(CO)c(Br)n(Cc3ccccc3)c2n1
inactive: UO-31 12.7 µM | HCC 2998 43.3 µM | A498 4.32 µM | HOP-62 27 µM | MDA-N > 100 µM | NCI/ADR-RES 24.7 µM | CCRF-CEM > 100 µM | MCF7 24.6 µM | SF-268 16.3 µM | HL-60 > 100 µM | RPMI-8226 92.9 µM | SNB-75 13.6 µM | NCI-H226 11.3 µM | SF-539 12.2 µM | TK-10 21.8 µM | 786-0 18.7 µM | EKVX 29.2 µM | OVCAR-4 16.1 µM | PC-3 43.1 µM

[O-]c1c[n+](CCCC[n+]2cc([O-])on2)no1
inactive: UO-31 > 100 µM | HCC 2998 > 100 µM | A498 > 100 µM | HOP-62 > 100 µM | K562 > 100 µM | MDA-N > 100 µM | NCI/ADR-RES > 100 µM | CCRF-CEM > 100 µM | MCF7 > 100 µM | SF-268 > 100 µM | HL-60 > 100 µM | RPMI-8226 > 100 µM | SNB-75 > 100 µM | SF-539 > 100 µM | TK-10 > 100 µM | 786-0 > 100 µM | EKVX > 100 µM | OVCAR-4 > 100 µM | PC-3 > 100 µM
